# pKd: −log10 of the molar value. Where no end group is shown, it is not given here.
# Key:
# [1] = Kinetic assay: biolayer interferometry binding to biotin-labeled PIP2; details: 24° C., read-out: dissociation constant
# From the text: FIGS. 10A-10C: (FIG. 10A) The PIP2-binding motif (SEQ ID NO: 12) on the ? hosphorylation ? ite ? omain (PSD) of MARCKS. FIG. 10A discloses the MH domain as SEQ ID NO: 86). (FIG. 10B) Biolayer interferometry analysis of the binding of the MPS peptide to biotin-labeled PIP2. (FIG. 10C) PIP3 levels in IPF fibroblast cells with PBS or MPS treatment. * p<0.05 versus PBS (n=3).
# Real-time binding of the peptide mimicking the phosphorylation site domain of MARCKS (MPS peptide, amino acids 151 to 175 from the wild-type MARCKS protein) to biotin-labeled PIP2 was evaluated using biolayer interferometry (BLI) on an Octet RED96 system (ForteBio) following the manufacturer's instructions. Briefly, the ligand, PIP2 labeled with biotin at the sn-1 position (1000 nM in ddH2O), was immobilized on Super Streptavidin (SSA) biosensors for 10 minutes. A binding assay was performed with the MPS analyte at various concentrations from 0 to 1000 nM in ddH2O. Association and dissociation were monitored for 5 minutes. Assays were performed at 24° C. Data were analyzed using Octet Data Analysis Software 7.0 (ForteBio).
# [2] = system: bleomycin-induced pulmonary fibrosis; assay: Bleomycin-induced pulmonary fibrosis; format: in vivo, C57BL/6J mice; details: 28 mg/kg i.p. every other day, Masson's trichrome staining after 22 days
# Description: FIGS. 20A and 20B show suppressive effects of MPS peptide on pulmonary fibrosis in vivo. C57BL/6 mice were intraperitoneally given either PBS, nintedanib (28 mg/kg), MPS peptide (28 mg/kg) or MPS-12042 (7 mg/kg) at the dosage of every two days after 9 days of intratracheal exposure with one shot of saline or bleomycin (33 μg in […] of saline, n=5). (FIG. 20A) Representative Masson trichrome and immunohistochemical staining of phospho-MARCKS (Ser159/163) and phospho-AKT (Ser473) (n=6). (FIG. 20B) Hydroxyproline level in the left lung of mice as described above was determined by a hydroxyproline ELISA assay (mean±SD, *p<0.05).
# MPS peptide potentially serves as an antifibrotic agent in bleomycin-induced pulmonary fibrosis. Bleomycin remains the standard agent for induction of experimental pulmonary fibrosis in animals^23. Thus, 8-week-old female C57BL/6J mice received saline or bleomycin intratracheally (33 μg in […] of saline) as previously described^23. Lung specimens from bleomycin- or saline-treated mice were collected and subjected to immunofluorescence staining. […] Next, lung fibroblast cells isolated from saline- or bleomycin-treated mice (two mice fibroblast cell lines were gifts from Dr. Sem H. Phan, University of Michigan School of Medicine, MI) were incubated with either 100 μM control or MPS peptide for 48 hours. […]
# [3] = system: oncospheres derived from H292 cells; assay: Sphere-forming assay, smoke-enriched oncospheres derived from H292 cells; format: cell-based
# From the text: FIG. 18A-18C: (FIG. 18A) Sphere-forming assays for evaluating the inhibitory effect of the MPS peptide on smoke-mediated stemness. (FIG. 18B) Quantification of the number and size of oncospheres. (FIG. 18C) RT-qPCR analyses of mRNA expression in the above oncospheres.
# Targeting the MARCKS PSD is associated with inhibition of stem-like cell properties. In light of the importance of the PSD in the functionality of MARCKS protein, Applicant designed a 25-mer MPS peptide to mimic the MARCKS phosphorylation site domain (PSD). […] Applicant's initial studies have shown that elevation of phospho-MARCKS in lung cancer spheres acted in parallel with increased stemness markers, such as CD133, Oct3/4, SOX2 and Nanog (data not included). The oncospheres were derived from high MARCKS-expressing lung cancer cell lines (H1975 and CL1-5) and primary lung cancer cells (LG704 and LC3: pleural effusion cells isolated from patients with advanced stage) in non-adherent serum-free culture conditions as described previously^30-32. Flow cytometry confirmed that ˜80% of LG704 oncosphere cells are CD133-positive, a major lung CSCs marker. […] The sphere-forming ability was assessed by counting the number and size of tumor spheres (oncospheres) under a microscope. […]
# [4] = system: normal human epithelial cells; details: earlier work of Applicant (refs 14, 16); cited from earlier work
sequence,measurement,setting,value
KKKKKRFSFKKSFKLSGFSFKKNKK [MPS peptide],pKd,[1],7.75
same,fibroblastic lesions and deposited extracellular matrix in the lungs,[2],decreases of fibroblastic lesions and deposited extracellular matrix
same,number and size of oncospheres,[3],inhibitory effects
same,expression of stemness genes,[3]; RT-qPCR,inhibitory effects
same,cytotoxic effect on normal human epithelial cells,[4],no cytotoxic effect
